Measurements: patent publication US8680272B2, “3-arylethynyl substituted quinazolinone compounds” (Council of Scientific & Industrial Research, priority 2011, dated 2014)

How the values were obtained:
TK-10 = test: Anticancer activity, SRB assay, renal cell line TK-10; type: cell-based, human; conditions: Renal TK-10, 48 h continuous drug exposure, —^b means GI50 values not attained at the concentrations used; for GI50: Homo sapiens, read-out: Growth Inhibition GI50
Method: (§1) Some of biological activity studies were carried out at the National Cancer Institute (NCI), Maryland, USA.
(§2) The compounds were evaluated for anticancer activity against sixty human cancer cells derived from nine cancer types (leukemia cell line, non-small-cell lung cell line, colon cell line, CNS cell line, melanoma cell line, ovarian cell line, prostate cell line, renal cell line and breast cancer cell line) as shown in Table 1. For each compound, dose response curves for each cell line were measured at a minimum of five concentrations at 10 fold dilutions. A protocol of 48 h continuous drug exposure was used and a sulforhodamine B (SRB) protein assay was used to estimate cell viability or growth.

[1] = test system: two prostate cancer cell line (PC-3, DU-145); test: Anticancer activity, SRB assay, prostate panel; type: cell-based, human; conditions: for GI50: Homo sapiens, DU-145, two prostate cancer cell line, exposure period of at least 48 h, read-out: GI50 (range over the panel); for mean graph midpoint values (MG_MID) of log10 TGI (Log10TGI50) / mean graph midpoint values (MG_MID) of Log10LC50 / mean graph midpoint values (MG_MID) of Log10GI50: Prostate; for mean graph midpoint values (MG_MID) of log10 TGI (Log10TGI50): log value of concentration of the compound resulting in total inhibition of net cell growth; for mean graph midpoint values (MG_MID) of Log10LC50: log value of the concentration of compounds leading to 50% net cell death; for mean graph midpoint values (MG_MID) of Log10GI50: log values of concentration in mol/L causing 50% inhibition of net cell growth
Method: as §1, §2

SNB-75 = test: Anticancer activity, SRB assay, CNS cell line SNB-75; type: cell-based, human; conditions: CNS SNB-75, 48 h continuous drug exposure, —^b means GI50 values not attained at the concentrations used; for GI50: Homo sapiens, read-out: Growth Inhibition GI50
Method: as §1, §2

A549/ATCC = test: Anticancer activity, SRB assay, non-small lung cell line A549/ATCC; type: cell-based, human; conditions: 48 h continuous drug exposure, —^b means GI50 values not attained at the concentrations used; for GI50: Homo sapiens, read-out: Growth Inhibition GI50
Method: as §1, §2

M14 = test: Anticancer activity, SRB assay, melanoma cell line M14; type: cell-based; conditions: Homo sapiens, 48 h continuous drug exposure, read-out: Growth Inhibition GI50
Method: as §1, §2

CCRF-CEM = test: Anticancer activity, SRB assay, leukemia cell line CCRF-CEM; type: cell-based, human; conditions: 48 h continuous drug exposure, —^b means GI50 values not attained at the concentrations used; for GI50: Homo sapiens, read-out: Growth Inhibition GI50
Method: as §1, §2

MCF7 = test: Anticancer activity, SRB assay, breast cell line MCF7; type: cell-based; conditions: Homo sapiens, 48 h continuous drug exposure, read-out: Growth Inhibition GI50
Method: as §1, §2

SK-OV-3 = test: Anticancer activity, SRB assay, ovarian cell line SK-OV-3; type: cell-based, human; conditions: Ovarian SK-OV-3, 48 h continuous drug exposure, —^b means GI50 values not attained at the concentrations used; for GI50: Homo sapiens, read-out: Growth Inhibition GI50
Method: as §1, §2

NCI/ADR-RES = test: Anticancer activity, SRB assay, ovarian cell line NCI/ADR-RES; type: cell-based, human; conditions: Ovarian NCl/ADR-RES, 48 h continuous drug exposure, —^b means GI50 values not attained at the concentrations used; for GI50: Homo sapiens, NCI/ADR-RES, read-out: Growth Inhibition GI50
Method: as §1, §2

HCC-2998 = test: Anticancer activity, SRB assay, colon cell line HCC-2998; type: cell-based, human; conditions: Colon HCC-2998, 48 h continuous drug exposure, —^b means GI50 values not attained at the concentrations used; for GI50: Homo sapiens, read-out: Growth Inhibition GI50
Method: as §1, §2

OVCAR-4 = test: Anticancer activity, SRB assay, ovarian cell line OVCAR-4; type: cell-based, human; conditions: Ovarian OVCAR-4, 48 h continuous drug exposure, —^b means GI50 values not attained at the concentrations used; for GI50: Homo sapiens, read-out: Growth Inhibition GI50
Method: as §1, §2

DU-145 = test: Anticancer activity, SRB assay, prostate cell line DU-145; type: cell-based, human; conditions: Prostate DU-145, 48 h continuous drug exposure, —^b means GI50 values not attained at the concentrations used; for GI50: Homo sapiens, read-out: Growth Inhibition GI50
Method: as §1, §2

MOLT-4 = test: Anticancer activity, SRB assay, leukemia cell line MOLT-4; type: cell-based; conditions: Homo sapiens; Leukemia MOLT-4; 48 h continuous drug exposure; read-out: Growth Inhibition GI50
Method: as §1, §2

OVCAR-8 = test: Anticancer activity, SRB assay, ovarian cell line OVCAR-8; type: cell-based, human; conditions: Ovarian OVCAR-8, 48 h continuous drug exposure, —^b means GI50 values not attained at the concentrations used; for GI50: Homo sapiens, read-out: Growth Inhibition GI50
Method: as §1, §2

[2] = test system: six breast cancer cell line (MCF-7, MDA-MB-231/ATCC, HS 578T, TD-47D, MDA-MB-468 and BT-549); test: Anticancer activity, SRB assay, breast panel; type: cell-based, human; conditions: for mean graph midpoint values (MG_MID) of log10 TGI (Log10TGI50) / mean graph midpoint values (MG_MID) of Log10LC50 / mean graph midpoint values (MG_MID) of Log10GI50: Breast; for mean graph midpoint values (MG_MID) of log10 TGI (Log10TGI50): log value of concentration of the compound resulting in total inhibition of net cell growth; for mean graph midpoint values (MG_MID) of Log10LC50: log value of the concentration of compounds leading to 50% net cell death; for mean graph midpoint values (MG_MID) of Log10GI50: log values of concentration in mol/L causing 50% inhibition of net cell growth; for GI50: Homo sapiens, six breast cancer cell line, exposure period of at least 48 h, read-out: GI50 (range over the panel)
Method: as §1, §2

K-562 = test: Anticancer activity, SRB assay, leukemia cell line K-562; type: cell-based; conditions: Homo sapiens, K562; Leukemia K-562; 48 h continuous drug exposure; read-out: Growth Inhibition GI50
Method: as §1, §2

EKVX = test: Anticancer activity, SRB assay, non-small lung cell line EKVX; type: cell-based; conditions: Homo sapiens, 48 h continuous drug exposure, read-out: Growth Inhibition GI50
Method: as §1, §2

MDA-MB-468 = test: Anticancer activity, SRB assay, breast cell line MDA-MB-468; type: cell-based; conditions: Homo sapiens; Breast MDA-MB-468; 48 h continuous drug exposure; read-out: Growth Inhibition GI50
Method: as §1, §2

RXF 393 = test: Anticancer activity, SRB assay, renal cell line RXF 393; type: cell-based, human; conditions: Renal RXF 393; 48 h continuous drug exposure; —^b means GI50 values not attained at the concentrations used
Method: as §1, §2

Row | SMILES | GI50 (TK-10) | GI50 [1] | mean graph midpoint values (MG_MID) of log10 TGI (Log10TGI50) [1] | mean graph midpoint values (MG_MID) of Log10LC50 [1] | mean graph midpoint values (MG_MID) of Log10GI50 [1] | GI50 (SNB-75) | GI50 (A549/ATCC) | GI50 (M14) | GI50 (CCRF-CEM) | GI50 (MCF7) | GI50 (SK-OV-3) | GI50 (NCI/ADR-RES) | GI50 (MOLT-4) | mean graph midpoint values (MG_MID) of log10 TGI (Log10TGI50) [2] | mean graph midpoint values (MG_MID) of Log10LC50 [2] | mean graph midpoint values (MG_MID) of Log10GI50 [2] | GI50 [2] | GI50 (K-562) | GI50 (EKVX) | GI50 (MDA-MB-468) | further results
1 | Cc1cc(C#Cc2ccccc2)ccc1-n1c(/C=C/c2ccc(O)cc2)nc2ccccc2c1=O [Compound 4b, (E)-2-(4-Hydroxystyryl)-3-(2-methyl-4-(phenylethynyl)phenyl)quinazolin-4(3H)-one] | 2.62 µM | 3.24 to 4.87 µM | >−4.00 | >−4.00 | −5.40 mol/L | 3.66 µM | 3.14 µM | 3.26 µM | 3.26 µM | 2.72 µM | 9.91 µM | 3.09 µM | 2.36 µM | −4.58 | >−4.00 | −5.54 mol/L | 2.02 to 3.89 µM | 2 µM | 2.43 µM | 3.78 µM | GI50 (HCC-2998): 2.35 µM; GI50 (OVCAR-4): 3.17 µM; GI50 (DU-145): 4.87 µM; GI50 (OVCAR-8): 3.98 µM
2 | Cc1cc(C#Cc2ccccc2)ccc1-n1c(/C=C/c2cc(O)ccc2O)nc2ccccc2c1=O [Compound 4c, (E)-2-(2,5-Dihydroxystyryl)-3-(2-methyl-4-(phenylethynyl)phenyl)quinazolin-4(3H)-one] | 2.03 µM | 0.419 to 2.19 µM | −5.43 | −4.68 | −6.17 mol/L | 1.3 µM | 1.28 µM | 1.54 µM | 1.54 µM | 1.45 µM | 1.83 µM | 2.06 µM | 1.14 µM | −5.39 | −4.66 | −5.84 mol/L | 1.14 to 1.61 µM | 1.42 µM | 1.24 µM | 1.61 µM | GI50 (HCC-2998): 1.36 µM; GI50 (OVCAR-4): 2.4 µM; GI50 (DU-145): 0.419 µM; GI50 (OVCAR-8): 1.94 µM
3 | COc1ccc2cc(C#Cc3ccc(-n4c(/C=C/c5cc(OC)c(OC)c(OC)c5)nc5ccccc5c4=O)c(C)c3)ccc2c1 [Compound 6l, (E)-3-(4-((6-Methoxynaphthalen-2-yl)ethynyl)-2-methylphenyl)-2-(3,4,5-trimethoxystyryl)quinazolin-4(3H)-one] | – | – | >−4.00 | >−4.00 | −4.00 mol/L | – | – | 12.7 µM | – | 63.8 µM | – | – | 4.66 µM | >−4.00 | >−4.00 | −4.51 mol/L | 3.8 to 63.8 µM | 0.882 µM | 24.1 µM | 3.8 µM | Growth Inhibition GI50 (RXF 393): —^b; Growth Inhibition GI50 (TK-10): —^b; Growth Inhibition GI50 (SNB-75): —^b; Growth Inhibition GI50 (A549/ATCC): —^b; Growth Inhibition GI50 (CCRF-CEM): —^b; Growth Inhibition GI50 (SK-OV-3): —^b; Growth Inhibition GI50 (NCI/ADR-RES): —^b; Growth Inhibition GI50 (HCC-2998): —^b; Growth Inhibition GI50 (OVCAR-4): —^b; Growth Inhibition GI50 (DU-145): —^b; Growth Inhibition GI50 (OVCAR-8): —^b
